Results from patent US20180243274A1, “ANTIBACTERIAL COMPOSITIONS” (WOCKHARDT LIMITED, priority 2013, published 2018).

Columns and labels:
[1] = test system: E. coli NCTC 13353 producing CTX-M15 and OXA 1 beta-lactamase enzymes; experiment: Time kill study against E. coli NCTC 13353; type: cell-based; details: for effect on bacterial counts when used alone: throughout the duration of the study
Protocol: (§1) The synergistic killing effect of the combinations according to invention was studied by performing time kill studies. In a typical time kill study, the freshly grown cultures were diluted to the required cell density (initial starting inoculum) in Cation adjusted Muller Hinton broth medium (BD, USA). The antibacterial agents (either alone or in combination) at the required concentrations were added into the culture-containing medium. The samples were incubated under shaking condition (120 rpm) at 37° C. Enumeration of viable bacterial count was done every 2 hour by diluting in normal saline and plating on to the Tryptic Soya Agar plates (BD, USA). The plates were incubated for 24 hours to arrive at the viable bacterial count. The results are expressed in terms of Log 10 CFU per ml. In general, the decrease of 1 Log 10 CFU/ml corresponds to 90% killing of bacteria. Similarly, 2 Log 10 CFU/ml reductions indicates to 99% killing of bacteria and 3 Log 10 CFU/ml reductions is equal to 99.9% killing of bacteria.
E. coli NCTC 13353 produces resistant CTX-M15 and OXA 1 beta-lactamase enzymes.

[2] = test system: clinical isolate of E. coli M50 producing CMY 6, DHA—1/2 beta-lactamase enzymes; experiment: Time kill study against clinical isolate E. coli M50; type: cell-based; details: for effect on bacterial counts when used alone: throughout the duration of the study
Protocol: as §1
The results on antibacterial activity of the antibacterial agent selected from cefixime, cefpodoxime, ceftibuten or cefuroxime alone and in combination with a compound of Formula (I) against E. coli M50 are given in Table 2. E. coli M50 produces resistant CMY 6, DHA-½ beta-lactamase enzymes.

| Structure (SMILES) | Bacterial count (Log10 CFU/ml) 0 hours ([1]; agent alone 1 mcg/ml) [Log10 CFU/ml] | Bacterial count (Log10 CFU/ml) 2 hours ([1]; agent alone 1 mcg/ml) [Log10 CFU/ml] | Bacterial count (Log10 CFU/ml) 4 hours ([1]; agent alone 1 mcg/ml) [Log10 CFU/ml] | Bacterial count (Log10 CFU/ml) 6 hours ([1]; agent alone 1 mcg/ml) [Log10 CFU/ml] | Bacterial count (Log10 CFU/ml) 24 hours ([1]; agent alone 1 mcg/ml) [Log10 CFU/ml] | Bacterial count (Log10 CFU/ml) 0 hour ([2]; agent alone 4 mcg/ml) [Log10 CFU/ml] | Bacterial count (Log10 CFU/ml) 2 hours ([2]; agent alone 4 mcg/ml) [Log10 CFU/ml] | Bacterial count (Log10 CFU/ml) 4 hours ([2]; agent alone 4 mcg/ml) [Log10 CFU/ml] | Bacterial count (Log10 CFU/ml) 6 hours ([2]; agent alone 4 mcg/ml) [Log10 CFU/ml] | Bacterial count (Log10 CFU/ml) 8 hours ([2]; agent alone 4 mcg/ml) [Log10 CFU/ml] | effect on bacterial counts when used alone [1] | effect on bacterial counts when used alone [2] | further results |
| --- | --- | --- | --- | --- | --- | --- | --- | --- | --- | --- | --- | --- | --- |
| C=CC1=C(C(=O)O)N2C(=O)[C@@H](NC(=O)/C(=N\OCC(=O)O)c3csc(N)n3)[C@H]2SC1 [Cefixime, cefixime] | 7.23 | 8.65 | 8.90 | 8.84 | 9.06 | 7.77 | 8.84 | 9.20 | 8.90 | 9.30 | – | – | – |
| COCC1=C(C(=O)O)N2C(=O)[C@@H](NC(=O)/C(=N\OC)c3csc(N)n3)[C@H]2SC1 [Cefpodoxime, cefpodoxime] | 7.23 | 8.17 | 8.74 | 8.90 | 9.06 | 7.77 | 8.60 | 9.04 | 9.16 | 9.19 | – | – | – |
| Nc1nc(/C(=C/CC(=O)O)C(=O)N[C@@H]2C(=O)N3C(C(=O)O)=CCS[C@H]23)cs1 [Ceftibuten, ceftibuten] | 7.23 | 8.10 | 8.7 | 9.04 | 9.51 | 7.77 | 8.48 | 8.70 | 9.08 | 9.20 | did not reduce the bacterial counts | did not reduce the bacterial counts | – |
| CO/N=C(\C(=O)N[C@@H]1C(=O)N2C(C(=O)O)=C(COC(N)=O)CS[C@H]12)c1ccco1 [Cefuroxime, cefuroxime] | 7.23 | 8.25 | 8.80 | 9.38 | 9.48 | 7.77 | 8.58 | 9.02 | 9.2 | 9.50 | did not reduce the bacterial counts | did not reduce the bacterial counts | – |
| O=C(NOC[C@@H]1CCCN1)[C@@H]1CC[C@@H]2CN1C(=O)N2OS(=O)(=O)O [Compound of Formula (I), (2S, 5R)-7-oxo-N-[(2S)-pyrrolidin-2-ylmethoxy]-6-(sulfooxy)-1,6-diazabicyclo[3.2.1]octane-2-carboxamide] | – | – | – | – | – | 7.77 | 8.02 | 8.09 | 8.07 | 8.08 | did not reduce the bacterial counts | did not reduce the bacterial counts | Bacterial count (Log10 CFU/ml) 0 hours ([1]; alone 4 mcg/ml): 7.23 Log10 CFU/ml; Bacterial count (Log10 CFU/ml) 2 hours ([1]; alone 4 mcg/ml): 7.17 Log10 CFU/ml; Bacterial count (Log10 CFU/ml) 4 hours ([1]; alone 4 mcg/ml): 7.14 Log10 CFU/ml; Bacterial count (Log10 CFU/ml) 6 hours ([1]; alone 4 mcg/ml): 7.11 Log10 CFU/ml; Bacterial count (Log10 CFU/ml) 24 hours ([1]; alone 4 mcg/ml): 7.87 Log10 CFU/ml |
| C[C@@H](O)[C@H]1C(=O)N2C(C(=O)O)=C(SCCN=CN)C[C@H]12 [Imipenem] | 7.23 | 4.95 | 4.47 | 4.39 | 7.34 | – | – | – | – | – | – | – | Bacterial count (Log10 CFU/ml) 0 hour ([2]; alone 1 mcg/ml): 7.77 Log10 CFU/ml; Bacterial count (Log10 CFU/ml) 2 hours ([2]; alone 1 mcg/ml): 5.60 Log10 CFU/ml; Bacterial count (Log10 CFU/ml) 4 hours ([2]; alone 1 mcg/ml): 7.47 Log10 CFU/ml; Bacterial count (Log10 CFU/ml) 6 hours ([2]; alone 1 mcg/ml): 8.07 Log10 CFU/ml; Bacterial count (Log10 CFU/ml) 8 hours ([2]; alone 1 mcg/ml): 8.47 Log10 CFU/ml |
